Measured values reported in paper PMC7450057, “Enhancing intracellular accumulation and target engagement of PROTACs with reversible covalent chemistry” (Nature Communications, 2020).
Several values for one entry are separate records, joined by “and”; a condition that tells them apart may be missing. Equal values may be shown once. Read-outs that look alike come from different tables or passages of the source.

Tests used:
[1] = test system: Mino cells; test: AlamarBlue cell viability assay, Mino; assay type: cell-based; details: for Mino Cell Viability%: Figure 2f, 5 replicates
Experimental: (§1) The IC50 was calculated using GraphPad Prism software with a four-parameter dose-response curve fit.

[2] = molecular target: T1, BTK-NanoLuc fusion (Homo sapiens, UniProt Q06187); test: NanoBRET BTK in-cell target engagement assay; assay type: cell-based; details: for NanoBRET(%): Figure 3d, triplicates
T1 construct: host or cells: HEK 293T/17
T1 sequence (Q06187 whole entry, the tested form may be a part): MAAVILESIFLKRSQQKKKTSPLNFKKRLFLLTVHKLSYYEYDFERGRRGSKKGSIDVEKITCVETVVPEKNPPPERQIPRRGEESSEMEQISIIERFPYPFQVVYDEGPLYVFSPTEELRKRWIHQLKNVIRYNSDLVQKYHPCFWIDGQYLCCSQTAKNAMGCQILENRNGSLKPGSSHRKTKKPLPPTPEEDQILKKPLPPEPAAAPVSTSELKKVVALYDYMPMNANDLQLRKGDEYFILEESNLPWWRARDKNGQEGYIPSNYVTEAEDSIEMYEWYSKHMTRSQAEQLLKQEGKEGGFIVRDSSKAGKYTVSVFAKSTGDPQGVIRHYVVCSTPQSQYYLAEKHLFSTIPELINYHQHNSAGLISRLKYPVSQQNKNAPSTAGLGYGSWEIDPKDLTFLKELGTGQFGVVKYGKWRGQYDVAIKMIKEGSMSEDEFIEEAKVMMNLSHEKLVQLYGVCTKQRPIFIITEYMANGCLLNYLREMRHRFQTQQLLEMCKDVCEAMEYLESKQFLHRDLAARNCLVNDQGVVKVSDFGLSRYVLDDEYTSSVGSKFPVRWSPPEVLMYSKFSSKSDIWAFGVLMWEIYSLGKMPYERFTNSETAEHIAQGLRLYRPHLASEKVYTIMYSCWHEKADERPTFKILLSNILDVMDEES
Experimental: The target engagement assay for BTK or CRBN was from Promega (BTK kit, Cat. No. N2500; CRBN kit, Cat. No. CS1810C136) and was performed according to the manufacture’s instruction with some modifications. Briefly, HEK 293/T17 cells (ATCC) were transiently transfected with BTK-NanoLuc® fusion vector or NanoLuc®-CRBN fusion vector (Promega) in 0.125 M CaCl2 and 1x HBS. Forty-eight hours after transfection, the cells were resuspended in Opti-MEM medium (Life Technologies, Cat. No. 11058021) at the density of 2 × 10^5 cells per mL and were plated into 96-well plates (Corning, Cat. No. CLS3600). Cells were incubated with 1.0 µM (BTK) or 0.5 µM (CRBN) NanoBRET™ Tracer and serially diluted unlabeled BTK PROTAC compounds (from 10 to 0.0032 µM, 5-fold dilution) for 2 h at 37 °С with 5% CO2 in an incubator. After 2 h incubation, the 3X Nano-Glo® Substrate with NanoLuc® extracellular inhibitor were added to cells and developed for 3 min at room temperature. BRET signals were collected using a BioTek SYNERGY H1 microplate reader equipped with a 450/80-nm BP filter for donor emission and a 610-nm LP filter for acceptor emission. BRET Ratio was calculated with the equation: [(Acceptor sample/Donor sample)–(Acceptor no tracer control/Donor no tracer control)] × 1000. The IC50 of the compound against its BTK or CRBN tracer was calculated using GraphPad Prism software.

[3] = test system: MOLM-14 cells; test: AlamarBlue cell viability assay, MOLM-14; details: for MOLM-14 Cell Viability%: Figure 2f, 5 replicates
Experimental: as §1

[4] = molecular target: BTK (Homo sapiens, UniProt Q06187); test: BTK degradation in MOLM-14 cells (western blot); assay type: cell-based; design: endogenous in cells; host or cells: MOLM-14; details: Figure 2b, duplicates
BTK (Homo sapiens, UniProt Q06187), sequence (Q06187 whole entry): as the sequence (Q06187 whole entry, the tested form may be a part) above

[5] = molecular target: BTK (Mus musculus, UniProt P35991); test: BTK degradation in mouse B-cell lymphoma cell line derived from Eu-Myc mice; assay type: cell-based; design: endogenous in cells; host or cells: B cell lymphoma cell line derived from Eu-Myc mice; details: Supplementary Figure 10, replicates, DMSO about 100
BTK (Mus musculus, UniProt P35991), sequence (P35991 whole entry): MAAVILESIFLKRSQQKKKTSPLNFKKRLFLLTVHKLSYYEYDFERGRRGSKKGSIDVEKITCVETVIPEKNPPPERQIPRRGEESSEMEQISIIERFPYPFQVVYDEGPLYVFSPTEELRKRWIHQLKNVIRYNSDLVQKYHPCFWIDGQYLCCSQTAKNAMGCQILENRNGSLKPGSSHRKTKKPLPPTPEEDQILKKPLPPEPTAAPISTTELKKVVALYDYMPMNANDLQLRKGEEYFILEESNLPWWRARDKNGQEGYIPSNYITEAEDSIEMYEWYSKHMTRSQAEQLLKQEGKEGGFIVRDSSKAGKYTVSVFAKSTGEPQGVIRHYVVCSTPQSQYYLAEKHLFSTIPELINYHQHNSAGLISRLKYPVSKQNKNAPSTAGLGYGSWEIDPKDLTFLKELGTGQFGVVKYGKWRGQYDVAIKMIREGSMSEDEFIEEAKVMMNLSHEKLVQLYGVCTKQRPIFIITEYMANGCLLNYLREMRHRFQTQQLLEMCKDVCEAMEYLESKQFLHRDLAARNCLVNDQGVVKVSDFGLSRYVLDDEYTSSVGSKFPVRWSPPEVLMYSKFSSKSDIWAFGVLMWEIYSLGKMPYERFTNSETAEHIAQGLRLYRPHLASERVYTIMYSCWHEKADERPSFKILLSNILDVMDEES
Experimental: MOLM-14 cell line was obtained from Dr. Conneely at Baylor College of Medicine, and the Mino cells were purchased from the American Type Culture Collection (ATCC, Cat. No. CRL-3000). Both cell lines were cultured in RPMI 1640 medium (Thermo Fisher Scientific, Cat. No. MT10040CV) supplemented with 10% fetal bovine serum (GE Healthcare, Cat. No. SH30071.03) and 1% Pen/Strep (Thermo Fisher Scientific, Cat. No. 15140163). The wild-type and C481S BTK XLA cell lines were gifts from Dr. Woyach at The Ohio State University and were cultured in RPMI 1640 medium with 15% fetal bovine serum, 1% Pen/Strep, and 1.0 µg/ml puromycin (Thermo Fisher Scientific, Cat. No. A1113803). HEK 293T/17 cells were purchased from ATCC (Cat. No. CRL-11268) were maintained in DMEM (Thermo Fisher Scientific, Cat. No. MT10013CV) with 10% fetal bovine serum and 1% Pen-Strep. The B cell lymphoma cell line derived from Eu-Myc mice was a gift from Dr. Yulin Li at Houston Methodist Research Institute and cultured in RPMI 1640 medium supplemented with 15% (v/v) fetal bovine serum (FBS), 100 U/mL penicillin, 100 μg/mL streptomycin, and 0.05 mM beta-mercaptoethanol and puromycin (1 μg/mL). Cells were grown at 37 °C with 5% CO2.
The collected cells and spleen tissues were lysed in RIPA lysis buffer (50 mM Tris-HCl, pH 7.4, 150 mM NaCl, 1% NP-40, 0.5% sodium deoxycholate, 0.1% SDS) supplemented with Halt™ Protease and Phosphatase Inhibitor Cocktail (Thermo Fisher Scientific, Cat. No. PI78440) immediately before use. Lysates were centrifuged at 15,000 × g for 10 min at 4 °C and the supernatant was quantified for total protein concentration using the Pierce BCA Protein Assay (Thermo Fisher Scientific, Cat. No. 23225). Thirty micrograms of protein were loaded onto sodium dodecyl sulfate−polyacrylamide gel for electrophoresis (Bio-Rad) and transferred onto PVDF membranes (Millipore, Cat. No. IPVH00010). […] Imaging was performed using the ECL Prime chemiluminescent western blot detection reagents (GE Healthcare, Cat. No. RPN2232) by visualization of the blots to X-Ray film or with an Imager (Kindle Biosciences, Cat. No. D1001). All western blots were subsequently processed and quantified with Imager software. Protein level was normalized to β-actin or GAPDH loading controls.

[6] = Permeability by lipid-PAMPA method (Pharmaron); assay type: in vitro ADME; details: for recovery at 16 h, 10 μM: PAMPA
Experimental: The permeability of compounds was measured using Lipid-PAMPA method by Pharmaron. Preparation of stock solutions: testosterone and methotrexate were used as control compounds in this assay. The stock solutions of positive controls were prepared in DMSO or acetonitrile at the concentration of 10 mM. Prepare a stock solution of compounds in DMSO at the concentration of 10 mM, and further dilute with PBS (pH 7.4). […]
Assay procedures: prepare a 1.8% solution (w/v) of lecithin in dodecane, and sonicate the mixture to ensure a complete dissolution. Carefully pipette 5 μL of the lecithin/dodecane mixture into each acceptor plate well (top compartment), avoiding pipette tip contact with the membrane. Immediately after the application of the artificial membrane (within 10 min), add 300 μL of PBS (pH 7.4) solution to each well of the acceptor plate. Add 300 μL of drug-containing solutions to each well of the donor plate (bottom compartment) in triplicate. Slowly and carefully place the acceptor plate into the donor plate, making sure the underside of the membrane is in contact with the drug-containing solutions in all wells. Replace the plate lid and incubate at 25 °C, 60 rpm for 16 h. After incubation, aliquots of 50 μL from each well of acceptor and donor plate are transferred into a 96-well plate. Add 450 μL of methanol (containing IS: 100 nM Alprazolam, 200 nM Caffeine, 100 nM Tolbutamide) into each well. Cover with plate lid. Vortex at 750 rpm for 100 s. Samples were centrifuged at 3220 × g for 20 min. Determine the compound concentrations by LC/MS/MS. The effective permeability (Pe), in units of centimeter per second, can be calculated using the following equation: LogPe=LogC×−Ln1−drugacceptor/drugequilibrium

Nc1ncnc2c1c(-c1ccc(Oc3ccccc3)cc1)nn2C1CCN(CCOCCOCC(=O)Nc2ccc3c(c2)C(=O)N(C2CCC(=O)NC2=O)C3=O)CC1 (stereo not shown) [MT-802, reference compound]
Mino Cell Viability% ([1]; 1.00E-06 M): 55.7423% and 49.4302% and 55.3437% and 39.2835% and 54.1265%
Mino Cell Viability% ([1]; 1.60E-09 M): 110.483% and 109.05% and 93.6147% and 92.6129% and 76.2619%
Mino Cell Viability% ([1]; 2.00E-07 M): 89.5862% and 87.1949% and 82.8432% and 61.1711% and 66.0828%
Mino Cell Viability% ([1]; 3.20E-10 M): 84.5559% and 99.9483% and 73.8491% and 92.4729% and 74.9908%
Mino Cell Viability% ([1]; 4.00E-08 M): 100.53% and 96.2968% and 92.2144% and 82.8217% and 85.9885%
Mino Cell Viability% ([1]; 5.00E-06 M): 34.2209% and 40.5007% and 48.9347% and 30.3001% and 41.1685%
Mino Cell Viability% ([1]; 8.00E-09 M): 99.2266% and 99.1512% and 91.8158% and 60.6002% and 61.5373%
IC50 ([1]; Homo sapiens, Mino cells, 72 h, Alamar Blue): 1000 nM
NanoBRET(%) ([2]; 1.00E-05 M): 8.881% and 7.144% and 4.414%
NanoBRET(%) ([2]; 1.60E-08 M): 91.6984% and 97.1324% and 98.4487%
NanoBRET(%) ([2]; 2.00E-06 M): 18.1369% and 17.2809% and 19.5819%
NanoBRET(%) ([2]; 3.20E-09 M): 100.618% and 96.0652% and 96.5159%
NanoBRET(%) ([2]; 4.00E-07 M): 66.8491% and 61.8713% and 67.4598%
NanoBRET(%) ([2]; 8.00E-08 M): 83.5249% and 103.088% and 96.5333%
IC50 ([2]; HEK-293 cells, BTK tracer 1.0 µM, experiment of Fig. 3d, read-out: BTK target engagement IC50): 660 nM
MOLM-14 Cell Viability% ([3]; 1.00E-05 M): 30.9193% and 24.2086% and 26.5576% and 19.8014% and 27.7094%
MOLM-14 Cell Viability% ([3]; 1.60E-08 M): 94.0978% and 96.8402% and 91.572% and 84.5934% and 78.4642%
MOLM-14 Cell Viability% ([3]; 2.00E-06 M): 75.5166% and 72.09% and 75.4424% and 57.762% and 72.8197%
MOLM-14 Cell Viability% ([3]; 3.20E-09 M): 96.9942% and 95.4205% and 85.785% and 84.5706% and 80.2089%
MOLM-14 Cell Viability% ([3]; 4.00E-07 M): 88.0029% and 82.2386% and 86.6288% and 76.8507% and 80.4769%
MOLM-14 Cell Viability% ([3]; 6.40E-10 M): 81.9593% and 80.8361% and 77.1985% and 75.6192% and 75.9328%
MOLM-14 Cell Viability% ([3]; 8.00E-08 M): 97.8209% and 89.394% and 93.0772% and 82.672% and 84.7872%
IC50 ([3]; Homo sapiens, MOLM-14, 72 h, read-out: Cell viability IC50, MOLM-14 cells, 72 h, Alamar Blue): 4700 nM
Quantification anti-BTK / anti-β-actin (BTK level vs DMSO) ([4]; 8 nM): 79.5706 and 82.6481
Quantification anti-BTK / anti-β-actin (BTK level vs DMSO) ([4]; 40 nM): 47.7374 and 48.0125
Quantification anti-BTK / anti-β-actin (BTK level vs DMSO) ([4]; 200 nM): 22.5968 and 20.4165
BTK quantification (anti-BTK / anti-β-actin) ([5]; 8 nM): 79.5706 and 82.6481
BTK quantification (anti-BTK / anti-β-actin) ([5]; 40 nM): 47.7374 and 48.0125
BTK quantification (anti-BTK / anti-β-actin) ([5]; 200 nM): 22.5968 and 20.4165

CN(Cc1cnc2nc(N)nc(N)c2n1)c1ccc(C(=O)N[C@@H](CCC(=O)O)C(=O)O)cc1 [Methotrexate, methotrexate, reference compound]
recovery at 16 h, 10 μM ([6]; Recovery%): 105%

C[C@]12CC[C@H]3[C@@H](CCC4=CC(=O)CC[C@@]43C)[C@@H]1CC[C@@H]2O [Testosterone, testosterone, reference compound]
recovery at 16 h, 10 μM ([6]; Mean, read-out: Recovery%): 91.1%
recovery at 16 h, 10 μM ([6]; single replicates, read-out: Recovery%): 88.7%
Recovery% ([6]; single replicates): 88.88% and 95.84%
-Log Pe ([6]; single replicates, 10 μM, PBS pH 7.4, 25 °C, 16 h, Pe in centimeter per second): 4.51 and 4.29 and 4.30
